Patent US20260022098A1, “BULLEYACONITINE A DERIVATIVE WITH ANALGESIC ACTIVITY, AND PREPARATION METHOD AND APPLICATION THEREOF” (priority 2023, published 2026)

Legend:
RAW 264.7 cells = assay: MTT assay, viability of RAW 264.7 cells; format: cell-based; settings: compound diluted to 30 mol/L (so in the source), 12 h
Experimental: (§1) The effect of the compound to be tested on viability of RAW 264.7 cells at a concentration of […] was assessed through MTT assay (Methylthiazolyldiphenyl-tetrazolium bromide assay), and the inhibition on NO release in the inflammatory response of LPS-induced RAW 264.7 cells at 30 µM was determined through Griess method. Specific methods were described as follows.
An MTT solution (5 mg/mL) was prepared with a PBS buffer, filter-sterilized through a 0.22 μm filter membrane, and stored protected from light at low temperature. Each compound was dissolved in DMSO to prepare a 50 mmol/L stock solution, and stored from light at low (frozen) temperature. The stock solution was diluted to 30 mol/L with DMEM (Dulbecco's modified Eagle's medium) containing 10% FBS (fetal bovine serum). RAW264.7 cells beyond third passage were added to a culture medium and gently pipetted to detach, forming a cell suspension. 10 μL of the cell suspension was applied onto a hemocytometer slide for counting, and cells were seeded into 96-well plates at a density of 6×10^3 cells per well with 100 μL of the cell suspension per well. After incubated at 37° C. with 5% CO2 for 24 h, supernatant was removed. A zero-adjustment group (CO group) received 100 μL of medium per well, the blank group (CK group) received 100 μL of DMSO (1/1000 dilution) per well, and the experimental groups received 100 μL of the test samples per well. After 12 h, supernatant was removed, and […] of MTT solution was added into each well at 120 μL per well. After incubated in COz at a constant temperature for 4 h, supernatant was removed, and DMSO was added into each well by 150 μL per well. The mixture was shaken at 50 r/min for 10 min and subjected to an absorbance test at 492 nm. Relative cell viability (x) was calculated through a formula as follows: relative cell viability (%)=(ODTest−ODCO)/(ODCK−ODCO)×100%.

Kunming mice [1] = assay: Analgesic activity by acetic acid-induced writhing method (writhing inhibition rate, ED50); format: in vivo; settings: Mus musculus, sc, acetic acid-induced writhing, mice, subcutaneous; for ED50: Probit regression, read-out: ED50; for inhibition in vivo at 0.05 mg/kg: dosing concentration 0.05 mg/kg; for inhibition in vivo at 0.05 mg/kg / inhibition in vivo at 0.5 mg/kg: read-out: Analgesia rate (%) ± SEM; for inhibition in vivo at 0.5 mg/kg: dosing concentration 0.5 mg/kg
How it was run: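 Kunming mice (22±2 g, 1:1 sex, 12 h fasted, 10/group) got compound s.c. (dissolved 1:1 molar with 0.1 mol/L HCl, diluted in saline); 0.7% acetic acid i.p. 15 min later, writhes counted over 15 min. Inhibition rate vs saline blank; ED50 by Probit regression over ≥5 doses.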

Kunming mice [2] = assay: Calculation of therapeutic index (TI = LD50/ED50); format: in vivo
Experimental: (3) Calculation of Therapeutic Index (TI)
The therapeutic index of each compound was calculated based on the median effective dose and the median lethal dose, which were specifically as follows: therapeutic index (TI)=median lethal dose (LD50)/median effective dose (ED50).

[3] = Acute toxicity / median lethal dose (LD50) determination, subcutaneous injection; format: in vivo, mice; design: key to Acute toxicity: if death occurred, (+) represented as positive; if no death occurred, (−) represented as negative; settings: both sexes, Kunming, mouse, in vivo, sc; mice, subcutaneous, survival within 24 h, Probit regression; >X = no death or toxic symptoms at X mg/kg
How it was run: (§2)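 Kunming mice (22±2 g, 1:1 male:female, fasted 12 h), 10 per group, given compound subcutaneously at 0.1 mL/10 g in saline after 1:1 molar dissolution in 0.1 mol/L HCl. At least 5 proportional dose groups set from a 20 mg/kg pilot; 24 h survival, LD50 by Probit regression.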

Kunming mice [4] = assay: as above; format: in vivo; design: key to Acute toxicity: if death occurred, (+) represented as positive; if no death occurred, (−) represented as negative; settings: mice administered 20 mg/kg subcutaneously, presence of death within 24 h
How it was run: as §2

[5] = system: LPS-induced RAW 264.7 cells; assay: Griess assay, inhibition of NO release in LPS-induced RAW 264.7 cells; format: cell-based; settings: Griess method, compound at 30 M (so in the source), 22 h
Experimental: as §1
RAW264.7 cells beyond third passage were added to a culture medium and gently pipetted to detach, forming a cell suspension. 10 μL of the cell suspension was applied onto a hemocytometer slide for counting, and cells were seeded into a 96-well plate at a density of 3×10^4 cells per well with 100 μL of the cell suspension per well. After incubated at 37° C. with […] for 24 h, supernatant was removed. The blank group received 100 μL of DMSO (1/1000 dilution) per well, a LPS (lipopolysaccharide) group received 100 μL of DMSO (1/1000 dilution) per well, and the experimental groups received 100 μL of the test samples per well. The LPS group received 1 μg/ml of LPS by […] per well, and the experimental groups received […] of LPS by 3 μg per well. After 22 h, 50 μL of supernatant was transferred into another 96-well plate, added with Griess Reagent I in a NO assay kit by 50 μL per well, then added with Griess Reagent II by 50 μL per well, and subjected to an absorbance test at 562 nm. Nitric oxide (NO) concentration was calculated based on a standard curve, which was specifically as follows: NO inhibition rate (%)=(ODLPS−ODTest)/(ODLPS−ODBlank)×100).

SMILES: CCO[C@]12C[C@H](OC)[C@@]3(OC(=O)C4CCCCC4)CC(C1[C@H]3OC(=O)C1CCCCC1)[C@]13C4[C@@H](OC)C2[C@H]1N(CC)C[C@]4(COC)CC[C@@H]3OC (some centres unmarked) [Compound 5]
- RAW cell viability (RAW 264.7 cells): 28.05 ± 4.84 %
- ED50 (Kunming mice [1]): 0.083 mg/kg
- inhibition in vivo at 0.05 mg/kg (Kunming mice [1]): 49.7 ± 1.1%
- TI (Kunming mice [2]): >1204.8
- LD50 [3]: > 100 mg/kg
- Acute toxicity (Kunming mice [4]): −

SMILES: CCO[C@]12C[C@H](OC)[C@@]3(OC(=O)c4ccco4)CC(C1[C@H]3OC(=O)c1ccco1)[C@]13C4[C@@H](OC)C2[C@H]1N(CC)C[C@]4(COC)CC[C@@H]3OC (some centres unmarked) [Compound 6]
- RAW cell viability (RAW 264.7 cells): 92.23 ± 1.29 ns %
- Inflammatory NO inhibition rate [5]: 22 ± 4.41 %
- ED50 (Kunming mice [1]): 0.069 mg/kg
- inhibition in vivo at 0.05 mg/kg (Kunming mice [1]): 59.8 ± 2.3%
- TI (Kunming mice [2]): >8695.7
- LD50 [3]: > 600 mg/kg
- Acute toxicity (Kunming mice [4]): −

SMILES: CCO[C@]12C[C@H](OC)[C@@]3(OC(=O)c4ccc(OC)cc4)CC(C1[C@H]3OC(=O)c1ccc(OC)cc1)[C@]13C4[C@@H](OC)C2[C@H]1N(CC)C[C@]4(COC)CC[C@@H]3OC (some centres unmarked) [Compound 13]
- RAW cell viability (RAW 264.7 cells): 8.29 ± 2.8 %
- ED50 (Kunming mice [1]): 0.082 mg/kg
- inhibition in vivo at 0.05 mg/kg (Kunming mice [1]): 49.4 ± 1.3%
- TI (Kunming mice [2]): >1219.5
- LD50 [3]: > 100 mg/kg
- Acute toxicity (Kunming mice [4]): −

SMILES: CCO[C@]12C[C@H](OC)[C@@]3(OC(=O)c4ccco4)CC(C1[C@H]3OC(=O)c1ccc(OC)cc1)[C@]13C4[C@@H](OC)C2[C@H]1N(CC)C[C@]4(COC)CC[C@@H]3OC (some centres unmarked) [Compound 15]
- RAW cell viability (RAW 264.7 cells): 104.18 ± 6.16 ns %
- Inflammatory NO inhibition rate [5]: 5 ± 2.17 %
- ED50 (Kunming mice [1]): 0.073 mg/kg
- inhibition in vivo at 0.05 mg/kg (Kunming mice [1]): 57.6 ± 1.3%
- TI (Kunming mice [2]): 773
- LD50 [3]: 56.4 mg/kg
- Acute toxicity (Kunming mice [4]): −

SMILES: CCO[C@]12C[C@H](OC)[C@@]3(OC(=O)C4CCOCC4)CC(C1[C@H]3OC(=O)C1CCOCC1)[C@]13C4[C@@H](OC)C2[C@H]1N(CC)C[C@]4(COC)CC[C@@H]3OC (some centres unmarked) [Compound 23]
- RAW cell viability (RAW 264.7 cells): 81.35 ± 3.48 %
- ED50 (Kunming mice [1]): 0.073 mg/kg
- inhibition in vivo at 0.05 mg/kg (Kunming mice [1]): 57.9 ± 0.6%
- TI (Kunming mice [2]): >1369.9
- LD50 [3]: > 100 mg/kg
- Acute toxicity (Kunming mice [4]): −

SMILES: CCO[C@]12C[C@H](OC)[C@@]3(OC(=O)c4cccnc4)CC(C1[C@H]3OC(=O)c1cccnc1)[C@]13C4[C@@H](OC)C2[C@H]1N(CC)C[C@]4(COC)CC[C@@H]3OC (some centres unmarked) [Compound 27]
- RAW cell viability (RAW 264.7 cells): 87.20 ± 7.66 ^ %
- Inflammatory NO inhibition rate [5]: 7 ± 2.16 %
- ED50 (Kunming mice [1]): 0.033 mg/kg
- inhibition in vivo at 0.05 mg/kg (Kunming mice [1]): 62 ± 1.6%
- TI (Kunming mice [2]): >18181.8
- LD50 [3]: > 600 mg/kg
- Acute toxicity (Kunming mice [4]): −

SMILES: CCN1C[C@]2(COC)CC[C@H](OC)[C@@]34C5C[C@]6(OC(=O)c7cccnc7)[C@@H](OC)C[C@@](OC(C)=O)(C5[C@H]6OC(=O)c5ccc(OC)cc5)C([C@H](OC)C23)[C@@H]14 (some centres unmarked) [Compound 29]
- RAW cell viability (RAW 264.7 cells): 116.43 ± 15.6 ^ %
- Inflammatory NO inhibition rate [5]: 20 ± 1.12 %
- ED50 (Kunming mice [1]): 1.48 mg/kg
- inhibition in vivo at 0.05 mg/kg (Kunming mice [1]): 47.9 ± 1.8%
- inhibition in vivo at 0.5 mg/kg (Kunming mice [1]): 65.6 ± 1.3%
- TI (Kunming mice [2]): 27.9
- LD50 [3]: 41.2 mg/kg
- Acute toxicity (Kunming mice [4]): −

SMILES: CCO[C@]12C[C@H](OC)[C@@]3(OC(=O)c4ccc([N+](=O)[O-])cc4)CC(C1[C@H]3OC(=O)c1ccc(OC)cc1)[C@]13C4[C@@H](OC)C2[C@H]1N(CC)C[C@]4(COC)CC[C@@H]3OC (some centres unmarked) [Compound 39]
- RAW cell viability (RAW 264.7 cells): 6.97 ± 0.93 %
- ED50 (Kunming mice [1]): 0.195 mg/kg
- inhibition in vivo at 0.05 mg/kg (Kunming mice [1]): 51.1 ± 1.4%
- TI (Kunming mice [2]): >512.8
- LD50 [3]: > 100 mg/kg
- Acute toxicity (Kunming mice [4]): −

SMILES: CCO[C@]12C[C@H](OC)[C@@]3(OC(=O)c4ccccc4)CC(C1[C@H]3OC(=O)c1ccccc1)[C@]13C4[C@@H](OC)C2[C@H]1N(CC)C[C@]4(COC)CC[C@@H]3OC (some centres unmarked) [Compound 52]
- RAW cell viability (RAW 264.7 cells): 7.00 ± 0.98 %
- ED50 (Kunming mice [1]): 0.479 mg/kg
- inhibition in vivo at 0.05 mg/kg (Kunming mice [1]): 47 ± 1.8%
- inhibition in vivo at 0.5 mg/kg (Kunming mice [1]): 64.2 ± 1.3%
- TI (Kunming mice [2]): >208.8
- LD50 [3]: > 100 mg/kg
- Acute toxicity (Kunming mice [4]): −

SMILES: CCO[C@]12C[C@H](OC)[C@@]3(OC(=O)c4ccc(F)cc4)CC(C1[C@H]3OC(=O)c1ccc(OC)cc1)[C@]13C4[C@@H](OC)C2[C@H]1N(CC)C[C@]4(COC)CC[C@@H]3OC (some centres unmarked) [Compound 60]
- RAW cell viability (RAW 264.7 cells): 96.09 ± 7.95 ns %
- Inflammatory NO inhibition rate [5]: 2 ± 2.82 %
- ED50 (Kunming mice [1]): 0.122 mg/kg
- inhibition in vivo at 0.05 mg/kg (Kunming mice [1]): 50 ± 1.4%
- TI (Kunming mice [2]): >819.7
- LD50 [3]: > 100 mg/kg
- Acute toxicity (Kunming mice [4]): −

SMILES: CCCC(=O)O[C@]12CC3C([C@H]1OC(=O)c1ccc(OC)cc1)[C@](OC(C)=O)(C[C@@H]2OC)C1[C@H](OC)C2[C@@]4(COC)CC[C@H](OC)[C@@]32[C@@H]1N(CC)C4 (some centres unmarked) [Compound 79]
- RAW cell viability (RAW 264.7 cells): 101.29 ± 2.63 ns %
- Inflammatory NO inhibition rate [5]: 42 ± 4.69 %
- inhibition in vivo at 0.05 mg/kg (Kunming mice [1]): 37.9 ± 2%
- Acute toxicity (Kunming mice [4]): −

SMILES: CCO[C@]12C[C@H](OC)[C@@]3(OC(=O)CC(C)(C)C)CC(C1[C@H]3OC(=O)CC(C)(C)C)[C@]13C4[C@@H](OC)C2[C@H]1N(CC)C[C@]4(COC)CC[C@@H]3OC (some centres unmarked) [Compound 88]
- RAW cell viability (RAW 264.7 cells): 74.05 ± 10.06 %
- ED50 (Kunming mice [1]): 0.161 mg/kg
- inhibition in vivo at 0.05 mg/kg (Kunming mice [1]): 47.7 ± 0.6%
- inhibition in vivo at 0.5 mg/kg (Kunming mice [1]): 65.07 ± 0.6%
- TI (Kunming mice [2]): >621.1
- LD50 [3]: > 100 mg/kg
- Acute toxicity (Kunming mice [4]): −

SMILES: CCO[C@]12C[C@H](OC)[C@@]3(OC(=O)CC(C)(C)C)CC(C1[C@H]3OC(=O)c1ccc(OC)cc1)[C@]13C4[C@@H](OC)C2[C@H]1N(CC)C[C@]4(COC)CC[C@@H]3OC (some centres unmarked) [Compound 90]
- RAW cell viability (RAW 264.7 cells): 101.74 ± 7.63 ns %
- Inflammatory NO inhibition rate [5]: 12 ± 4.85 %
- inhibition in vivo at 0.05 mg/kg (Kunming mice [1]): 41.9 ± 1.9%
- inhibition in vivo at 0.5 mg/kg (Kunming mice [1]): 59 ± 0.8%
- Acute toxicity (Kunming mice [4]): −
